Source: patent publication US5256682A, “Isoxazolylimidazole derivatives, process for their production and their use in pharmaceutical agents” (Schering Aktiengesellschaft, priority 1991, dated 1993)

test: Metabolic stability: % of test substance remaining after incubation with mouse liver homogenate; assay type: in vitro ADME; details: amount not catabolized, in % of the zero value; 120 minutes, 37° C., pH 7.3; NMRI mouse liver homogenate; HPLC; read-out: % Radical after incubation with mouse liver homogenate
Method: The stability of the compounds was measured as follows:
The test substance (1 μg/50 μl of ethanol) was adjusted with 750 μl of Krebs-Henseleit-Ringer phosphate buffer to pH 7.3 and brought together with 750 μl of a liver homogenate at room temperature and mixed. 250 μl of this batch was removed for zero-point determination and the batch was incubated at 37° C. with continuous movement in a water bath. Aliquot parts of 250 μl are removed after 120 minutes, extracted with 3 ml of diethyl ether after 5 minutes of shaking, then centrifuged for 10 minutes under cooling, frozen, the ether is decanted and dried in a dry nitrogen stream. The residue is dissolved in each case in 200 μl of ethanol and the solution is analyzed with HPLC. The liver used was obtained from NMRI mice and homogenized after removal immediate in 4 parts of a 0.25 molar sucrose solution in a Potter-Elvehjem mixer. The homogenate was then filtered through linen and diluted with the same sucrose solution to 1:10 (weight: volume). Aliquot parts of the solution were stored at -18° C.

SMILES	remaining at 2 h
CCc1cc(-c2ncn(-c3cccc(Oc4ccccc4)c3)c2C)on1 [B, 4-(3-Ethyl-isoxazol-5-yl)-5-methyl-1-(3-phenoxyphenyl)imidazole]	95%
CCc1nc(-c2ncn(-c3cccc(Oc4ccccc4)c3)c2C)no1 [A, 4-(5-ethyl-1,2,4-oxadiazol-3-yl)-5-methyl-1-(3-phenoxy-phenyl)-imidazole, reference compound]	31%
COCc1cc(-c2ncn(-c3cccc(Oc4ccccc4)c3)c2C)on1 [D, 4-(3-Methoxymethyl-isoxazol-5-yl)-5-methyl-1-(3-phenoxyphenyl)-imidazole]	100%
CCc1cc(-c2ncn(-c3cccc(Oc4ccccc4)c3)c2C)no1 [C, 4-(5-Ethyl-isoxazol-3-yl)-5-methyl-1-(3-phenoxyphenyl)imidazole]	71%
